Assay: Phase 1 hepatic impairment study, safety (TEAEs) after single oral 20 mg tablet
[1] = mild hepatic impairment (N = 8)
[2] = moderate hepatic impairment (N = 8)
[3] = normal hepatic function (N = 14)

Method: The secondary objective of the study was to assess the safety and tolerability of a single dose of paltusotine in subjects with varying degrees of hepatic impairment.
Safety and tolerability were assessed by the following endpoints: reported adverse events (AEs), clinical laboratory test results (hematology, coagulation, serum chemistry, and urinalysis), vital sign measurements, and 12-lead electrocardiogram results
All 36 subjects who were enrolled in the study received all planned single doses of paltusotine 20 mg (1×20 mg tablet) and were included in the safety and PK analysis populations.

With `N#Cc1cccc(-c2ccc3ncc(-c4cc(F)cc(F)c4)c(N4CCC(N)CC4)c3c2)c1O` [paltusotine, 3-[4-(4-amino-1-piperidyl)-3-(3,5-difluorophenyl)-6-quinolyl]-2-hydroxybenzonitrile] the “discontinuation due to a TEAE” value (all 36 subjects) was “No subjects discontinued”, the safety and tolerability (hepatic impairment and normal subjects) was “safe and generally well tolerated” and the “Any SAEs, number of occurrences” value [1] was 1. The “Any TEAE, number of occurrences” value [1] was 3, the “Related TEAE Abdominal discomfort, subjects n (%)” value [1] was 0 and the “Related TEAE Diarrhea, number of occurrences” value (shortened to “Related TEAE Diarrhea, number”) [1] was 1. For the same molecule, the “Related TEAE Diarrhea, subjects n (%)” value [1] was 1 (12.5%), the “Related TEAE Epigastric discomfort, subjects n (%)” value [1] was 0 and the “Related TEAE Fatigue, subjects n (%)” value [1] was 0. The “Related TEAE Haematuria, number of occurrences” value [1] was 1, the “Related TEAE Haematuria, subjects n (%)” value [1] was 1 (12.5%) and the “Related TEAE Headache, subjects n (%)” value [1] was 0. The “Related TEAE Neutropenia, subjects n (%)” value [1] was 0, the “Related TEAE Pain, subjects n (%)” value [1] was 0 and the “Related TEAE Paraesthesia, subjects n (%)” value [1] was 0. The “SAEs Not related to study drug (strongest relationship), subjects n (%)” value (“SAEs Not related to study drug … (%)” for short) [1] was 1 (12.5%), the “SAEs Not related to study drug, number of occurrences” value [1] was 1 and the “SAEs Related to study drug (strongest relationship), subjects” value (shortened to “SAEs Related to study drug”) [1] was 0. For the same molecule, the “Subjects reporting any SAEs, subjects n (%)” value [1] was 1 (12.5%), the “Subjects reporting any TEAE, subjects n (%)” value [1] was 2 (25.0%) and the “TEAE Abdominal discomfort, subjects n (%)” value [1] was 0. For the same molecule, the “TEAE COVID-19, subjects n (%)” value [1] was 0, the “TEAE Death, number of occurrences” value [1] was 1 and the “TEAE Diarrhea, number of occurrences” value [1] was 1. The “TEAE Diarrhea, subjects n (%)” value [1] was 1 (12.5%), the “TEAE Epigastric discomfort, subjects n (%)” value [1] was 0 and the “TEAE Fatigue, subjects n (%)” value [1] was 0. The “TEAE Haematuria, number of occurrences” value [1] was 1, the “TEAE Haematuria, subjects n (%)” value [1] was 1 (12.5%) and the “TEAE Headache, subjects n (%)” value [1] was 0. For the same molecule, the “TEAE Neutropenia, subjects n (%)” value [1] was 0, the “TEAE Pain, subjects n (%)” value [1] was 0 and the “TEAE Paraesthesia, subjects n (%)” value [1] was 0. For the same molecule, the “TEAE SOC Blood and lymphatic system disorders, subjects n (%)” value [1] was 0, the “TEAE SOC Gastrointestinal disorders, number of occurrences” value [1] was 1 and the “TEAE SOC Gastrointestinal disorders, subjects n (%)” value [1] was 1 (12.5%). For the same molecule, the “TEAE SOC General disorders and administration site conditions, number of occurrences” value [1] was 1, the “TEAE SOC General disorders and administration site conditions, subjects n (%)” value [1] was 1 (12.5%) and the “TEAE SOC Infections and infestations, subjects n (%)” value [1] was 0. The “TEAE SOC Nervous system disorders, subjects n (%)” value [1] was 0, the “TEAE SOC Renal and urinary disorders, number of occurrences” value [1] was 1 and the “TEAE SOC Renal and urinary disorders, subjects n (%)” value [1] was 1 (12.5%). The “TEAEs Not Related to study drug (strongest relationship), subjects n (%)” value [1] was 0, the “TEAEs Related to study drug (strongest relationship), subjects n (%)” value [1] was 2 (25.0%) and the “TEAEs Related to study drug, number of occurrences” value [1] was 2. For the same molecule, the “TEAEs by maximum severity: Mild, number of occurrences” value [1] was 2, the “TEAEs by maximum severity: Mild, subjects n (%)” value [1] was 1 (12.5%) and the “TEAEs by maximum severity: Moderate, subjects n (%)” value [1] was 0. For the same molecule, the “TEAEs by maximum severity: Severe, number of occurrences” value [1] was 1, the “TEAEs by maximum severity: Severe, subjects n (%)” value [1] was 1 (12.5%) and the “Total number of SAEs reported” value [1] was 1. For the same molecule, the “Total number of TEAEs reported” value [1] was 3, the “Any TEAE, number of occurrences” value [2] was 4 and the “Related TEAE Abdominal discomfort, subjects n (%)” value [2] was 0. The “Related TEAE Diarrhea, number” value [2] was 1, the “Related TEAE Diarrhea, subjects n (%)” value [2] was 1 (12.5%) and the “Related TEAE Epigastric discomfort, subjects n (%)” value [2] was 0. The “Related TEAE Fatigue, number of occurrences” value [2] was 1, the “Related TEAE Fatigue, subjects n (%)” value [2] was 1 (12.5%) and the “Related TEAE Haematuria, subjects n (%)” value [2] was 0. The “Related TEAE Headache, number of occurrences” value [2] was 1, the “Related TEAE Headache, subjects n (%)” value [2] was 1 (12.5%) and the “Related TEAE Neutropenia, subjects n (%)” value [2] was 0. The “Related TEAE Pain, number of occurrences” value [2] was 1, the “Related TEAE Pain, subjects n (%)” value [2] was 1 (12.5%) and the “Related TEAE Paraesthesia, subjects n (%)” value [2] was 0. For the same molecule, the “SAEs Not related to study drug … (%)” value [2] was 0, the “SAEs Related to study drug” value [2] was 0 and the “Subjects reporting any SAEs, subjects n (%)” value [2] was 0. For the same molecule, the “Subjects reporting any TEAE, subjects n (%)” value [2] was 2 (25.0%), the “TEAE Abdominal discomfort, subjects n (%)” value [2] was 0 and the “TEAE COVID-19, subjects n (%)” value [2] was 0. The “TEAE Death, subjects n (%)” value [2] was 0, the “TEAE Diarrhea, number of occurrences” value [2] was 1 and the “TEAE Diarrhea, subjects n (%)” value [2] was 1 (12.5%). For the same molecule, the “TEAE Epigastric discomfort, subjects n (%)” value [2] was 0, the “TEAE Fatigue, number of occurrences” value [2] was 1 and the “TEAE Fatigue, subjects n (%)” value [2] was 1 (12.5%). For the same molecule, the “TEAE Haematuria, subjects n (%)” value [2] was 0, the “TEAE Headache, number of occurrences” value [2] was 1 and the “TEAE Headache, subjects n (%)” value [2] was 1 (12.5%). For the same molecule, the “TEAE Neutropenia, subjects n (%)” value [2] was 0, the “TEAE Pain, number of occurrences” value [2] was 1 and the “TEAE Pain, subjects n (%)” value [2] was 1 (12.5%). The “TEAE Paraesthesia, subjects n (%)” value [2] was 0, the “TEAE SOC Blood and lymphatic system disorders, subjects n (%)” value [2] was 0 and the “TEAE SOC Gastrointestinal disorders, number of occurrences” value [2] was 1. The “TEAE SOC Gastrointestinal disorders, subjects n (%)” value [2] was 1 (12.5%), the “TEAE SOC General disorders and administration site conditions, number of occurrences” value [2] was 2 and the “TEAE SOC General disorders and administration site conditions, subjects n (%)” value [2] was 1 (12.5%). The “TEAE SOC Infections and infestations, subjects n (%)” value [2] was 0, the “TEAE SOC Nervous system disorders, number of occurrences” value [2] was 1 and the “TEAE SOC Nervous system disorders, subjects n (%)” value [2] was 1 (12.5%). The “TEAE SOC Renal and urinary disorders, subjects n (%)” value [2] was 0, the “TEAEs Not Related to study drug (strongest relationship), subjects n (%)” value [2] was 0 and the “TEAEs Related to study drug (strongest relationship), subjects n (%)” value [2] was 2 (25.0%). The “TEAEs Related to study drug, number of occurrences” value [2] was 4, the “TEAEs by maximum severity: Mild, number of occurrences” value [2] was 3 and the “TEAEs by maximum severity: Mild, subjects n (%)” value [2] was 1 (12.5%). The “TEAEs by maximum severity: Moderate, number of occurrences” value [2] was 1, the “TEAEs by maximum severity: Moderate, subjects n (%)” value [2] was 1 (12.5%) and the “TEAEs by maximum severity: Severe, subjects n (%)” value [2] was 0. For the same molecule, the “Total number of SAEs reported” value [2] was 0, the “Total number of TEAEs reported” value [2] was 4 and the “Any TEAE, number of occurrences” value [3] was 6. The “Related TEAE Abdominal discomfort, number of occurrences” value [3] was 1, the “Related TEAE Abdominal discomfort, subjects n (%)” value [3] was 1 (7.1%) and the “Related TEAE Diarrhea, number” value [3] was 2. For the same molecule, the “Related TEAE Diarrhea, subjects n (%)” value [3] was 2 (14.3%), the “Related TEAE Epigastric discomfort, number of occurrences” value [3] was 1 and the “Related TEAE Epigastric discomfort, subjects n (%)” value [3] was 1 (7.1%). For the same molecule, the “Related TEAE Fatigue, subjects n (%)” value [3] was 0, the “Related TEAE Haematuria, subjects n (%)” value [3] was 0 and the “Related TEAE Headache, subjects n (%)” value [3] was 0. The “Related TEAE Neutropenia, subjects n (%)” value [3] was 0, the “Related TEAE Pain, subjects n (%)” value [3] was 0 and the “Related TEAE Paraesthesia, number of occurrences” value [3] was 1. The “Related TEAE Paraesthesia, subjects n (%)” value [3] was 1 (7.1%), the “SAEs Not related to study drug … (%)” value [3] was 0 and the “SAEs Related to study drug” value [3] was 0. For the same molecule, the “Subjects reporting any SAEs, subjects n (%)” value [3] was 0, the “Subjects reporting any TEAE, subjects n (%)” value [3] was 4 (28.6%) and the “TEAE Abdominal discomfort, number of occurrences” value [3] was 1. The “TEAE Abdominal discomfort, subjects n (%)” value [3] was 1 (7.1%), the “TEAE COVID-19, subjects n (%)” value [3] was 0 and the “TEAE Death, subjects n (%)” value [3] was 0. For the same molecule, the “TEAE Diarrhea, number of occurrences” value [3] was 3, the “TEAE Diarrhea, subjects n (%)” value [3] was 3 (21.4%) and the “TEAE Epigastric discomfort, number of occurrences” value [3] was 1. The “TEAE Epigastric discomfort, subjects n (%)” value [3] was 1 (7.1%), the “TEAE Fatigue, subjects n (%)” value [3] was 0 and the “TEAE Haematuria, subjects n (%)” value [3] was 0. The “TEAE Headache, subjects n (%)” value [3] was 0, the “TEAE Neutropenia, subjects n (%)” value [3] was 0 and the “TEAE Pain, subjects n (%)” value [3] was 0. The “TEAE Paraesthesia, number of occurrences” value [3] was 1, the “TEAE Paraesthesia, subjects n (%)” value [3] was 1 (7.1%) and the “TEAE SOC Blood and lymphatic system disorders, subjects n (%)” value [3] was 0.
